Test results from publication PMC10043345, “Discovery of BAR502, as potent steroidal antagonist of leukemia inhibitory factor receptor for the treatment of pancreatic adenocarcinoma” (Frontiers in Oncology, 2023).

Experiments:
[1] = test system: MIA PaCa-2 cells; test: Ki-67/7-AAD IC-FACS cell cycle analysis; format: cell-based, human
Procedure: MIA-PaCa2 cells were seeded in 6-well tissue culture plate (cell density 700 × 10^3/well) and cultured as specified above. Cells were serum-starved for 8 h and then incubated with LIF (10 ng/mL) alone or plus BAR502 (10, 20 µM) or a vehicle for 24 h. The intracellular flow cytometry staining for Ki-67 was performed using the following reagents: Ki-67 Monoclonal Antibody (SolA15), Alexa Fluor™ 488, (eBioscience™, San Diego, California, USA) and 7-AAD to characterize the cell cycle phases G0-G1 and S-G2-M. Before intracellular IC-FACS, staining cells were fixed for 30 min in the dark using IC Fixation buffer (eBioscience™) and then permeabilized using Permeabilization buffer (10X) (eBioscience™). The staining for Annexin V was performed using the Annexin V Antibody (A13199, Thermofisher Scientific, Waltham, MA, USA) to evaluate the apoptosis rate. Briefly, 5 μL of Annexin V Antibody was added to each 100 μL of cell suspension, and cells were incubated the at room temperature for 15 min. Flow cytometry analyses were carried out using a 3-laser standard configuration ATTUNE NxT (LIFe Technologies, Carlsbad, CA, USA). Data were analyzed using FlowJo software (TreeStar) and the gates set using a fluorescence minus-one (FMO) control strategy. […] The channel in which the conjugated Ab is missing is the one for which the fluorescence minus one provides a gating control.

[2] = biological target: T1, hLIFR (Homo sapiens, UniProt P42702); test: STAT3 transactivation in HepG2 cells transfected with hLIFR and CD130, stimulated with LIF; format: cell-based; settings: LIF 10 ng/mL, read-out: HepG2 LIFR Antagonism IC50 (STAT3 transactivation)
T1 sequence (P42702 45-1097): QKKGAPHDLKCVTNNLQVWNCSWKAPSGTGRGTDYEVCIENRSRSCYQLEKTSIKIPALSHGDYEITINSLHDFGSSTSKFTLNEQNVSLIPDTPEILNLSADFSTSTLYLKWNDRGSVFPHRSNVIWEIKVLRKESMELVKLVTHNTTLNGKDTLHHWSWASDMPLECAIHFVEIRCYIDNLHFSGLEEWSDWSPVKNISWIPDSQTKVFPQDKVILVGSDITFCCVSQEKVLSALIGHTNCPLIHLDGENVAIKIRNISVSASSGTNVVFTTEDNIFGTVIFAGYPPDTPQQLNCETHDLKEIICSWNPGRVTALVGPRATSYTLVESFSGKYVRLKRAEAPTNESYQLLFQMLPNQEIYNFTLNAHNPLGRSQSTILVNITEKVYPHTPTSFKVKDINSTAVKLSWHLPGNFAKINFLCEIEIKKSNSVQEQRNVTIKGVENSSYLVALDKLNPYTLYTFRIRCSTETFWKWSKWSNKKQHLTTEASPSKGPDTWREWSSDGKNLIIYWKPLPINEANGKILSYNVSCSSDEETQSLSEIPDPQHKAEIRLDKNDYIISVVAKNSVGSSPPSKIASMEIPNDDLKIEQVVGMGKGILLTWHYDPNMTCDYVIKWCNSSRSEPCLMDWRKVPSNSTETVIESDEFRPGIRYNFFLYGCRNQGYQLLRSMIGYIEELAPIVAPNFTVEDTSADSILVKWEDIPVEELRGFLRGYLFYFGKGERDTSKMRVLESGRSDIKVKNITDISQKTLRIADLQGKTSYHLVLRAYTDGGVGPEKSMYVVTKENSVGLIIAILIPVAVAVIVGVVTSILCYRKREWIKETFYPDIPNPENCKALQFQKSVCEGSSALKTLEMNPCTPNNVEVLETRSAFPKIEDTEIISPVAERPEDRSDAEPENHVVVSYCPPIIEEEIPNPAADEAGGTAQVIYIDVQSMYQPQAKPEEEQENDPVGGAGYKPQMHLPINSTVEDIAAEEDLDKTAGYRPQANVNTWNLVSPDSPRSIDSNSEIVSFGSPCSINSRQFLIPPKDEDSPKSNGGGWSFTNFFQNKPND
Procedure: On day 0, HepG2 were seeded at 7.5 × 10^4 cells/well in a 24-well plate and maintained at 37°C and 5% CO2 in E-MEM supplemented with 10% FBS, 1% glutamine, and 1% penicillin/streptomycin. On day 1, cells were transiently transfected with the reporter plasmid pGL4.47[luc2P/SIE/Hygro] (200 ng) (CAT#: E4041 Promega, Madison, WI, USA), a vector encoding the hLIFR (CAT# RC226327) (100 ng) and CD130 (IL6ST) (100 ng) (CAT#: RC215123, OriGene Technologies, Inc. Rockville, MD, USA), and finally a vector encoding the human RENILLA luciferase gene (pGL4.70) (100 ng) (Promega, Madison, WI, USA). On day 2, cells were exposed to the cytokine LIF (10 ng/mL) alone or in combination with BAR502 (from 0.1 to 20 μM). […] For FXR mediated transactivation, HepG2 cells were plated at 7.5 × 10^4 cells/well in a 24 well plate. Cells were transfected with 200 ng of the reporter vector p(hsp27)-TK-LUC containing a FXR response element (IR1) cloned from the promoter of heat shock protein 27 (hsp27), 100 ng of pSG5-FXR, 100 ng of pSG5-RXR, and 100 ng of pGL4.70 (Promega), a vector encoding the human Renilla gene. To perform STAT3 transactivation, HepG2 were seeded at 7.5× 10^4 cells/well in a 24-well plate. On the day-1, cells were transiently transfected with 200 ng of the reporter plasmid pGL4.47[luc2P/SIE/Hygro] […] Luminescence was measured using a Glomax 20/20 luminometer (Promega, Madison, WI, USA). […]

CC[C@H]1[C@@H](O)C2C3CC[C@H]([C@H](C)CCO)[C@@]3(C)CCC2[C@@]2(C)CC[C@@H](O)C[C@@H]12 (stereo partly drawn) [BAR502]
effect on LIF-increased S-G2-M transition ([1]; BAR502 10-20 μM + LIF 10 ng/mL): significantly reversed
effect on LIF-induced increase of Ki-67 positive cells ([1]; LIF 10 ng/mL + BAR502): reversed
IC50 [2]: 2.73 µM
